Assay [1] deals with Leishmania major. Kind of assay: Antileishmanial activity against wild-type Leishmania major LV39 promastigotes infected in human THP1 cells by luciferase based assay. The format is functional, organism-based. As to conditions: LV39, THP-1.
Assay [2] concerns Leishmania amazonensis. Description: Antileishmanial activity against wild-type Leishmania amazonensis MHOM/BR/1973/MM2269 promastigotes infected in human THP1 cells by luciferase based assay. The format is functional, organism-based. As to conditions: THP-1.
The subject of assay [3] is Leishmania infantum. Kind of assay: Antileishmanial activity against wild-type Leishmania infantum MHOM/MA/67/ITMAP-263 promastigotes infected in human THP1 cells by luciferase based assay. The class given is functional, organism-based. As to conditions: THP-1.
The test system of assay [4] is Leishmania major. Description: Antileishmanial activity against ABC transporter PRP1 gene expressing Leishmania major LV39 promastigotes infected in human THP1 cells assessed as fold resistance by luciferase based assay relative to control. The format is functional, THP-1.
In assay [5] the test system is Leishmania amazonensis. Kind of assay: Antileishmanial activity against ABC transporter PRP1 gene expressing Leishmania amazonensis MHOM/BR/1973/MM2269 promastigotes infected in human THP1 cells assessed as fold resistance by luciferase based assay relative to control. The class given is functional, THP-1.
Assay [6] relates to Leishmania infantum. Description: Antileishmanial activity against ABC transporter PRP1 gene expressing Leishmania infantum MHOM/MA/67/ITMAP-263 axenic amastigotes assessed as fold resistance relative to control.

What is called IC50 is the concentration needed to halve the response being measured. For the compound `COc1ccc(CCN(C)CCCC(C#N)(c2ccc(OC)c(OC)c2)C(C)C)cc1OC` (centres undefined) [VERAPAMIL], the IC50 in assay [1] was determined as 40.3 µM; in assay [2], 19.1 µM; in assay [3], 43.2 µM.

As for `N=C(N)c1ccc(OCCCCCOc2ccc(C(=N)N)cc2)cc1` [PENTAMIDINE], the half-maximal inhibitory concentration (IC50) is 5.1 µg/mL in assay [1], 6.8 µg/mL in assay [2] and 10 µg/mL in assay [3]. Further, the “fold change (FC)” value in assay [4], in assay [5] and in assay [6] was 3 throughout.

For the origin of these results see ChEMBL document CHEMBL1155136, “Role of the ABC transporter PRP1 (ABCC7) in pentamidine resistance in Leishmania amastigotes” (Antimicrob Agents Chemother, 2007).
